Test results: ChEMBL document CHEMBL1201862, “PubChem BioAssay data set” (2004)
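A five-concentration, 48-hour dose response in 96-well plates underlies each endpoint, interpolated linearly between surrounding concentrations. Here, GI50 denotes the concentration required for 50% inhibition of growth.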 Calls of active or inactive are those of the source. Cut-off read from the data, not from the text of the source: active = GI50 up to about 1.1 µM and inactive = higher.

What was measured:
Assay in all cases: DTP human tumour cell line panel, 48 h
[1] = system: SK-MEL-5
[2] = system: MDA-MB-231
[3] = system: COLO 205
[4] = system: Malme-3M
[5] = system: HCT-15
[6] = system: OVCAR-8
[7] = system: SN12C
[8] = system: HL-60
[9] = system: SF-295
[10] = system: UACC-62
[11] = system: SF-268
[12] = system: MDA-N
[13] = system: RXF 393
[14] = system: M14
[15] = system: HT-29
[16] = system: SNB-19
[17] = system: MCF7
[18] = system: SK-MEL-28
[19] = system: EKVX
[20] = system: NCI/ADR-RES

| SMILES | GI50 [1] | GI50 [2] | GI50 [3] | GI50 [4] | GI50 [5] [µM] | GI50 [6] | GI50 [7] | GI50 [8] | GI50 [9] | GI50 [10] | GI50 [11] | GI50 [12] | GI50 [13] | GI50 [14] | GI50 [15] | GI50 [16] | GI50 [17] | GI50 [18] | GI50 [19] | GI50 [20] |
| --- | --- | --- | --- | --- | --- | --- | --- | --- | --- | --- | --- | --- | --- | --- | --- | --- | --- | --- | --- | --- |
| CN1CCN(CCCCNc2cc3c4ccccc4c(NCCCCN4CCN(C)CC4)cc3c3ccccc23)CC1 | 1.44 µM (inactive) | 1.62 µM (inactive) | 2.36 µM (inactive) | 2.15 µM (inactive) | 1.34 | 1.88 µM (inactive) | 2.61 µM (inactive) | 4.03 µM (inactive) | 1.78 µM (inactive) | 2.28 µM (inactive) | 1.9 µM (inactive) | 0.317 µM (active) | 1.41 µM (inactive) | 0.895 µM (active) | 1.95 µM (inactive) | 4.49 µM (inactive) | 1.34 µM (inactive) | 7.67 µM (inactive) | 7.43 µM (inactive) | 2.47 µM (inactive) |
| Oc1c(C(O)(c2ccccc2)c2ccc3ccccc3c2O)ccc2ccccc12 | 5.68 µM (inactive) | 13.6 µM (inactive) | 17.2 µM (inactive) | 11.8 µM (inactive) | 8.77 | 11.3 µM (inactive) | 7.74 µM (inactive) | 3.52 µM (inactive) | 16.5 µM (inactive) | 10.6 µM (inactive) | 12.2 µM (inactive) | 12.2 µM (inactive) | 8.87 µM (inactive) | 15.5 µM (inactive) | 17 µM (inactive) | 14.2 µM (inactive) | 2.93 µM (inactive) | 14.7 µM (inactive) | 11.4 µM (inactive) | 13.2 µM (inactive) |
| Cc1nc2nc3c(ncn3COCCO)c(O)n2c1C(c1ccccc1)(c1ccccc1)c1ccccc1 | 15.4 µM (inactive) | 14.5 µM (inactive) | 14.6 µM (inactive) | 18.3 µM (inactive) | 1.6 | 14 µM (inactive) | 16.5 µM (inactive) | 14.1 µM (inactive) | 17.3 µM (inactive) | 11.4 µM (inactive) | 16 µM (inactive) | 13.5 µM (inactive) | 12.8 µM (inactive) | 16.3 µM (inactive) | 11.7 µM (inactive) | 14.8 µM (inactive) | 10.2 µM (inactive) | 20 µM (inactive) | 19.4 µM (inactive) | 1.55 µM (inactive) |
| O=C(O)C(=Cc1ccc(-c2ccccc2)cc1)C(=O)O | 11 µM (inactive) | 14.9 µM (inactive) | 11.2 µM (inactive) | 14.7 µM (inactive) | 12.2 | 16.6 µM (inactive) | 11.5 µM (inactive) | 7.53 µM (inactive) | 18.6 µM (inactive) | 12.3 µM (inactive) | 14.5 µM (inactive) | 19.1 µM (inactive) | 4.02 µM (inactive) | 12.4 µM (inactive) | > 25.8 µM (inactive) | 13.6 µM (inactive) | 11.5 µM (inactive) | 15.8 µM (inactive) | > 100 µM (inactive) | 13.2 µM (inactive) |
| COc1cccc(/C=C/c2ccnc3ccccc23)c1OC | 6.89 µM (inactive) | > 10 µM (inactive) | > 10 µM (inactive) | > 10 µM (inactive) | > 10 | > 10 µM (inactive) | > 10 µM (inactive) | > 10 µM (inactive) | > 10 µM (inactive) | > 10 µM (inactive) | > 10 µM (inactive) | 4.94 µM (inactive) | > 10 µM (inactive) | > 10 µM (inactive) | 9.86 µM (inactive) | > 10 µM (inactive) | > 10 µM (inactive) | > 10 µM (inactive) | 9.66 µM (inactive) | 2.67 µM (inactive) |
| CC(C)OC(=O)c1ccc(NCC2=CC(=O)C=CC2=O)cc1 | 17.4 µM (inactive) | 10.2 µM (inactive) | 3.8 µM (inactive) | 8.97 µM (inactive) | 12.7 | 15.3 µM (inactive) | 12.9 µM (inactive) | 2.2 µM (inactive) | 28.2 µM (inactive) | 15.3 µM (inactive) | 12.3 µM (inactive) | 15.1 µM (inactive) | 12.8 µM (inactive) | 14.5 µM (inactive) | 16.4 µM (inactive) | 29.4 µM (inactive) | 12.4 µM (inactive) | 18.3 µM (inactive) | 17.3 µM (inactive) | 13.5 µM (inactive) |
| CCOc1ccc2nc(NC(=O)/C(CC(=O)CC(C3=C(O)c4ccccc4CC3=O)c3ccccc3)=N\O)sc2c1 (stereo not given) | > 100 µM (inactive) | > 100 µM (inactive) | > 100 µM (inactive) | > 100 µM (inactive) | > 100 | > 100 µM (inactive) | > 100 µM (inactive) | > 100 µM (inactive) | > 100 µM (inactive) | > 100 µM (inactive) | > 100 µM (inactive) | > 100 µM (inactive) | > 100 µM (inactive) | > 100 µM (inactive) | > 100 µM (inactive) | > 100 µM (inactive) | > 100 µM (inactive) | > 100 µM (inactive) | > 100 µM (inactive) | > 100 µM (inactive) |
| COc1ccccc1N1C(=O)CS(=O)(=O)C1c1cccc(Oc2ccccc2)c1 (stereo not given) | 14.4 µM (inactive) | 15.5 µM (inactive) | 16.1 µM (inactive) | 15 µM (inactive) | 12.1 | 16.5 µM (inactive) | 17.1 µM (inactive) | 12.7 µM (inactive) | 16.7 µM (inactive) | 12.1 µM (inactive) | 15.8 µM (inactive) | 4.3 µM (inactive) | 16.9 µM (inactive) | 16.6 µM (inactive) | 21.4 µM (inactive) | 18 µM (inactive) | 6.21 µM (inactive) | 17.5 µM (inactive) | 20.8 µM (inactive) | 16.9 µM (inactive) |
| Cc1cccc2c(NCCN(C)C)c3cccc(C(=O)NCCN(C)C)c3nc12 | 0.157 µM (active) | 0.0904 µM (active) | 0.173 µM (active) | 0.508 µM (active) | 0.14 | 0.107 µM (active) | 0.0603 µM (active) | 0.24 µM (active) | 0.105 µM (active) | 0.135 µM (active) | 0.316 µM (active) | 0.265 µM (active) | 0.475 µM (active) | 0.578 µM (active) | 0.0594 µM (active) | 0.413 µM (active) | 0.0656 µM (active) | 0.199 µM (active) | 0.383 µM (active) | 0.446 µM (active) |
| CN(C)c1ccc(/C=C2\C[C@H]3[C@@H]4CCc5cc(OCCN6CCCC6)ccc5[C@H]4CC[C@]3(C)[C@H]2O)cc1 | 9.66 µM (inactive) | 7.14 µM (inactive) | 13.5 µM (inactive) | 11.5 µM (inactive) | 5.3 | 6.32 µM (inactive) | 16.9 µM (inactive) | 18.9 µM (inactive) | 13.1 µM (inactive) | 20 µM (inactive) | 21.9 µM (inactive) | 14.8 µM (inactive) | 13.7 µM (inactive) | 4.27 µM (inactive) | 3.57 µM (inactive) | 18.7 µM (inactive) | 7.35 µM (inactive) | 5.11 µM (inactive) | 15 µM (inactive) | 19.3 µM (inactive) |
| Cc1c(C#N)c2nc3ccccc3n2c(=O)/c1=C/Nc1ccc(Cl)cc1 | 19.4 µM (inactive) | 24.8 µM (inactive) | 95.1 µM (inactive) | > 100 µM (inactive) | 8.65 | 51.3 µM (inactive) | 93.3 µM (inactive) | > 100 µM (inactive) | 7.71 µM (inactive) | 15.8 µM (inactive) | 22.9 µM (inactive) | > 100 µM (inactive) | 11.7 µM (inactive) | 3.83 µM (inactive) | > 100 µM (inactive) | 11 µM (inactive) | 55.2 µM (inactive) | > 100 µM (inactive) | 50.7 µM (inactive) | 95.7 µM (inactive) |
| CC(C)C(C(=O)O)N1C(=O)c2ccccc2C1=O (stereo not given) | > 100 µM (inactive) | > 100 µM (inactive) | > 100 µM (inactive) | > 100 µM (inactive) | > 100 | > 100 µM (inactive) | > 100 µM (inactive) | > 100 µM (inactive) | > 100 µM (inactive) | > 100 µM (inactive) | > 100 µM (inactive) | > 100 µM (inactive) | > 100 µM (inactive) | > 100 µM (inactive) | > 100 µM (inactive) | > 100 µM (inactive) | > 100 µM (inactive) | > 100 µM (inactive) | > 100 µM (inactive) | > 100 µM (inactive) |
| O=C(O)[C@H]1NC[C@@H]2ON=C(Br)[C@@H]21 | > 100 µM (inactive) | > 100 µM (inactive) | > 100 µM (inactive) | > 100 µM (inactive) | > 100 | > 100 µM (inactive) | > 100 µM (inactive) | > 100 µM (inactive) | > 100 µM (inactive) | > 100 µM (inactive) | > 100 µM (inactive) | > 100 µM (inactive) | > 100 µM (inactive) | > 100 µM (inactive) | > 100 µM (inactive) | > 100 µM (inactive) | > 100 µM (inactive) | > 100 µM (inactive) | > 100 µM (inactive) | > 100 µM (inactive) |
| COP(=O)(O)/C=C/C(NC(=O)C(Cl)(Cl)Cl)c1ccccc1 (stereo not given) | > 100 µM (inactive) | > 100 µM (inactive) | > 100 µM (inactive) | > 100 µM (inactive) | > 100 | > 100 µM (inactive) | > 100 µM (inactive) | > 100 µM (inactive) | > 100 µM (inactive) | > 100 µM (inactive) | > 100 µM (inactive) | > 100 µM (inactive) | > 100 µM (inactive) | > 100 µM (inactive) | > 100 µM (inactive) | > 100 µM (inactive) | > 100 µM (inactive) | > 100 µM (inactive) | > 100 µM (inactive) | > 100 µM (inactive) |
